Experimental data reported in patent US20240199546A1, “INHIBITORS OF SOLUTE CARRIER FAMILY 6A MEMBER 19 (SLC6A19) AND METHODS OF USE THEREOF” (Maze Therapeutics, Inc., priority 2022, published 2024).

Biological target: T1, human SLC6A19 and TMEM27 (Homo sapiens, UniProt Q695T7)
T1 construct: expressed in transfected cells
T1 sequence (Q695T7 1-634): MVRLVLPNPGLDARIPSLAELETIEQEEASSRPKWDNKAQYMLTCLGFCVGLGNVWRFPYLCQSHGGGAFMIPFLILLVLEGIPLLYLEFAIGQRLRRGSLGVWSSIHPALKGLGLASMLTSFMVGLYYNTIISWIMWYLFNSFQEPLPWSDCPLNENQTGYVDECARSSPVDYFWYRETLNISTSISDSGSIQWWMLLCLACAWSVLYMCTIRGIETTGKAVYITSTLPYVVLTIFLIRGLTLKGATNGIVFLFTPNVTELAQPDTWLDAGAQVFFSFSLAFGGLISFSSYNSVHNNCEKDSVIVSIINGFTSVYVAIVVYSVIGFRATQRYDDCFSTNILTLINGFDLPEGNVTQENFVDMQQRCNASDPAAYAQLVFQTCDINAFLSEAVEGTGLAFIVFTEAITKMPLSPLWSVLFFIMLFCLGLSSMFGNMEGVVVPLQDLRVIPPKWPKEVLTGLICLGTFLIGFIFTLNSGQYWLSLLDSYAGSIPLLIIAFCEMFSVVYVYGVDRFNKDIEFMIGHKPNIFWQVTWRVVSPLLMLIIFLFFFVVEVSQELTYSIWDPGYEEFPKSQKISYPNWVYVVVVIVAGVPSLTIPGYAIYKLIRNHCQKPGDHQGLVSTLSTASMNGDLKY
T1 sequence (Q9HBJ8 15-222 partner): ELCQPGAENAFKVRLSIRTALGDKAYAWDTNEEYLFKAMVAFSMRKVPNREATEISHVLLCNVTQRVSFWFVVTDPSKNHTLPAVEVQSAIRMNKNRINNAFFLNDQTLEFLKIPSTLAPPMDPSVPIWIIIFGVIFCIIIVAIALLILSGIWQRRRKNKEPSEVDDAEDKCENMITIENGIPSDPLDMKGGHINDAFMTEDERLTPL
Assay: Radiolabelled (3H) leucine uptake in CHO cells with doxycycline-inducible expression of human SLC6A19 and TMEM27 (Example B-1)
Format: cell-based
Settings: CHO cells with doxycycline-inducible expression of human SLC6A19 and TMEM27, read-out: SLC6A19_Radioligand Uptake Assay IC50
Outline: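 CHO cells were induced with doxycycline for 18 h at 37 °C, washed in HBSS, then exposed to compounds for 1 h: 8-point, 3-fold dilutions in duplicate, 0.5% DMSO final. Uptake measured by scintillation counting after 2 h shaking. Activity normalized with positive control as 0% and DMSO as 100%.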

| Structure (SMILES) | IC50 |
| --- | --- |
| Cc1cc(COc2cc3[nH]c(CNC(=O)C(O)C4CC4)cc3cc2Cl)on1 (stereo not drawn) [Compound 238, N-((5-chloro-6-((3-methylisoxazol-5-yl)methoxy)-1H-indol-2-yl)methyl)-2-cyclopropyl-2-hydroxyacetamide] | 1450 nM |
| Cc1cc(COc2cc3[nH]c(CNC(=O)[C@H](C)O)cc3cc2F)on1 [Compound 239, (S)-N-((5-fluoro-6-((3-methylisoxazol-5-yl)methoxy)-1H-indol-2-yl)methyl)-2-hydroxypropanamide] | 5880 nM |
| CC[C@H](O)C(=O)NCc1cc2cc(Cl)c(OCc3cc(C)no3)cc2[nH]1 [Compound 240, (S)-N-((5-chloro-6-((3-methylisoxazol-5-yl)methoxy)-1H-indol-2-yl)methyl)-2-hydroxybutanamide] | 490 nM |
| CC[C@@H](O)C(=O)NCc1cc2cc(Cl)c(OCc3cc(C)no3)cc2[nH]1 [Compound 241, (R)-N-((5-chloro-6-((3-methylisoxazol-5-yl)methoxy)-1H-indol-2-yl)methyl)-2-hydroxybutanamide] | 1020 nM |
| Cc1cc(COc2cc3[nH]c(CNC(=O)CO)cc3cc2Cl)on1 [Compound 242, N-((5-chloro-6-((3-methylisoxazol-5-yl)methoxy)-1H-indol-2-yl)methyl)-2-hydroxyacetamide] | 674 nM |
| CC(O)C(=O)NCc1cc2cc(Cl)c(OCc3cscn3)cc2[nH]1 (stereo not drawn) [Compound 243, N-((5-chloro-6-(thiazol-4-ylmethoxy)-1H-indol-2-yl)methyl)-2-hydroxypropanamide] | 336 nM |
| O=C(CO)NCc1cc2cc(Cl)c(OCc3cscn3)cc2[nH]1 [Compound 244, N-((5-chloro-6-(thiazol-4-ylmethoxy)-1H-indol-2-yl)methyl)-2-hydroxyacetamide] | 391 nM |
| Cc1cc(COc2cc3[nH]c(CNC(=O)CC4CCO4)cc3cc2Cl)on1 (stereo not drawn) [Compound 245, N-((5-chloro-6-((3-methylisoxazol-5-yl)methoxy)-1H-indol-2-yl)methyl)-2-(oxetan-2-yl)acetamide] | 1190 nM |
| Cc1cc(COc2cc3[nH]c(CNC(=O)[C@H](O)CF)cc3cc2Cl)on1 [Compound 246, (S)-N-((5-chloro-6-((3-methylisoxazol-5-yl)methoxy)-1H-indol-2-yl)methyl)-3-fluoro-2-hydroxypropanamide] | 411 nM |
| Cc1cc(COc2cc3[nH]c(CNC(=O)[C@@H](O)CF)cc3cc2Cl)on1 [Compound 247, (R)-N-((5-chloro-6-((3-methylisoxazol-5-yl)methoxy)-1H-indol-2-yl)methyl)-3-fluoro-2-hydroxypropanamide] | 770 nM |
| Cc1cc(COc2cc3[nH]c(CNC(=O)C(C)(C)O)cc3cc2Cl)on1 [Compound 249, N-((5-chloro-6-((3-methylisoxazol-5-yl)methoxy)-1H-indol-2-yl)methyl)-2-hydroxy-2-methylpropanamide] | 545 nM |
| Cc1cc(COc2cc3[nH]c(CNC(=O)C4(CO)CC4)cc3cc2Cl)on1 [Compound 250, N-((5-chloro-6-((3-methylisoxazol-5-yl)methoxy)-1H-indol-2-yl)methyl)-1-(hydroxymethyl)cyclopropane-1-carboxamide] | 383 nM |
| Cc1cc(COc2cc3[nH]c(CNC(=O)C4(O)CC4)cc3cc2Cl)on1 [Compound 251, N-((5-chloro-6-((3-methylisoxazol-5-yl)methoxy)-1H-indol-2-yl)methyl)-1-hydroxycyclopropane-1-carboxamide] | 194 nM |
| Cc1cc(COc2cc3[nH]c(CNC(=O)[C@H]4C[C@H](O)C4)cc3cc2Cl)on1 [Compound 252, (1R,3R)-N-((5-chloro-6-((3-methylisoxazol-5-yl)methoxy)-1H-indol-2-yl)methyl)-3-hydroxycyclobutane-1-carboxamide] | 628 nM |
| Cc1cc(COc2cc3[nH]c(CNC(=O)[C@H]4C[C@@H](O)C4)cc3cc2Cl)on1 [Compound 253, (1S,3S)-N-((5-chloro-6-((3-methylisoxazol-5-yl)methoxy)-1H-indol-2-yl)methyl)-3-hydroxycyclobutane-1-carboxamide] | 606 nM |
| O=C(NCc1cc2cc(Cl)c(OCc3cscn3)cc2[nH]1)C1(CO)CC1 [Compound 254, N-((5-chloro-6-(thiazol-4-ylmethoxy)-1H-indol-2-yl)methyl)-1-(hydroxymethyl)cyclopropane-1-carboxamide] | 294 nM |
| O=C(NCc1cc2cc(F)c(OCc3cscn3)cc2[nH]1)C1(CO)CC1 [Compound 255, N-((5-fluoro-6-(thiazol-4-ylmethoxy)-1H-indol-2-yl)methyl)-1-(hydroxymethyl)cyclopropane-1-carboxamide] | 1360 nM |

| Structure (SMILES) | IC50 |
| --- | --- |
| Cc1cc(COc2cc3[nH]c(CNC(=O)[C@@H](C)O)cc3cc2Cl)on1 [Compound 256, (R)-N-((5-chloro-6-((3-methylisoxazol-5-yl)methoxy)-1H-indol-2-yl)methyl)-2-hydroxypropanamide] | 140 nM |
| C[C@@H](O)C(=O)NCc1cc2cc(Cl)c(OCc3cscn3)cc2[nH]1 [Compound 257, (R)-N-((5-chloro-6-(thiazol-4-ylmethoxy)-1H-indol-2-yl)methyl)-2-hydroxypropanamide] | 756 nM |
| Cc1cc(COc2cc3[nH]c(CNC(=O)CC4COC4)cc3cc2Cl)on1 [Compound 258, N-((5-chloro-6-((3-methylisoxazol-5-yl)methoxy)-1H-indol-2-yl)methyl)-2-(oxetan-3-yl)acetamide] | 2670 nM |
| O=C(NCc1cc2cc(Cl)c(OCc3cscn3)cc2[nH]1)[C@H]1CCO1 [Compound 259, (R)-N-((5-chloro-6-(thiazol-4-ylmethoxy)-1H-indol-2-yl)methyl)oxetane-2-carboxamide] | 121 nM |
| CC1(C(=O)NCc2cc3cc(Cl)c(OCc4cscn4)cc3[nH]2)CCO1 (stereo not drawn) [Compound 260, N-((5-chloro-6-(thiazol-4-ylmethoxy)-1H-indol-2-yl)methyl)-2-methyloxetane-2-carboxamide] | 2350 nM |
| O=C(NCc1cc2cc(Cl)c(OCc3cscn3)cc2[nH]1)C1COC1 [Compound 261, N-((5-chloro-6-(thiazol-4-ylmethoxy)-1H-indol-2-yl)methyl)oxetane-3-carboxamide] | 105 nM |
| Cc1cc(COc2cc3[nH]c(CNC(=O)C4CCO4)cc3cc2F)on1 (stereo not drawn) [Compound 262, N-((5-fluoro-6-((3-methylisoxazol-5-yl)methoxy)-1H-indol-2-yl)methyl)oxetane-2-carboxamide] | 472 nM |
| COCC(=O)NCc1cc2cc(F)c(OCc3cc(C)no3)cc2[nH]1 [Compound 263, N-((5-fluoro-6-((3-methylisoxazol-5-yl)methoxy)-1H-indol-2-yl)methyl)-2-methoxyacetamide] | 174 nM |
| O=C(NCc1cc2cc(F)c(OCc3cscn3)cc2[nH]1)C1CCO1 (stereo not drawn) [Compound 264, N-((5-fluoro-6-(thiazol-4-ylmethoxy)-1H-indol-2-yl)methyl)oxetane-2-carboxamide] | 243 nM |
| COCC(=O)NCc1cc2cc(F)c(OCc3cscn3)cc2[nH]1 [Compound 265, N-((5-fluoro-6-(thiazol-4-ylmethoxy)-1H-indol-2-yl)methyl)-2-methoxyacetamide] | 120 nM |
| O=C(NCc1cc2cc(Cl)c(OCc3cscn3)cc2[nH]1)[C@H]1CCCO1 [Compound 266, (R)-N-((5-chloro-6-(thiazol-4-ylmethoxy)-1H-indol-2-yl)methyl)tetrahydrofuran-2-carboxamide] | 142 nM |
| O=C(NCc1cc2cc(Cl)c(OCc3cscn3)cc2[nH]1)C1CCOC1 (stereo not drawn) [Compound 267, N-((5-chloro-6-(thiazol-4-ylmethoxy)-1H-indol-2-yl)methyl)tetrahydrofuran-3-carboxamide] | 720 nM |
| O=C(NCc1cc2cc(Cl)c(OCc3cscn3)cc2[nH]1)C1CCCO1 (stereo not drawn) [Compound 268, N-((5-chloro-6-(thiazol-4-ylmethoxy)-1H-indol-2-yl)methyl)tetrahydrofuran-2-carboxamide] | 421 nM |
| O=C(NCc1cc2cc(Cl)c(OCc3cscn3)cc2[nH]1)C1CCO1 (stereo not drawn) [Compound 269, N-((5-chloro-6-(thiazol-4-ylmethoxy)-1H-indol-2-yl)methyl)oxetane-2-carboxamide] | 66.6 nM |
| COCC(=O)NCc1cc2cc(Cl)c(OCc3cscn3)cc2[nH]1 [Compound 270, N-((5-chloro-6-(thiazol-4-ylmethoxy)-1H-indol-2-yl)methyl)-2-methoxyacetamide] | 110 nM |
| COC(C)C(=O)NCc1cc2cc(Cl)c(OCc3cscn3)cc2[nH]1 (stereo not drawn) [Compound 271, N-((5-chloro-6-(thiazol-4-ylmethoxy)-1H-indol-2-yl)methyl)-2-methoxypropanamide] | 515 nM |
